Reference: US10682310B2, “Therapeutic compounds and formulations for intranasal delivery” (priority 2015, dated 2020)
Several values for one entry are separate records, joined by “and”; a condition that tells them apart may be missing. Identical values can stand only once. Counter-ions that a name gives are not always drawn.

Tests used:
[1] = system: A.O. protease (Aspergillus Oryzae); assay: Enzyme kinetics of prodrug conversion by A.O. protease (HPLC, integrated Michaelis-Menten fit); assay type: biochemical; conditions: for conversion of prodrug to DZP: 480 μM prodrug, A.O. protease 2-8 U/mL; for conversion of prodrug to DZP / Km / Vmax: assay buffer pH 7.4, 32° C.; for extent of conversion by A.O. protease: chirally pure prodrug; for catalytic efficiency as Vmax/(U/mL of A.O. protease): pH 7.4, 32° C.
Experimental: Enzyme Kinetics. To determine the enzyme kinetic parameters KM and Vmax for a prodrug/enzyme system, various concentrations of prodrug were incubated in assay buffer, pH 7.4 containing A.O. protease, at 32° C., for a fixed time period t, at which point the reaction was stopped using methanol as an enzyme denaturant. […] The reactions were carried out to times when there was already substantial conversion. Concentrations of product, Cd(t) were fit against initial prodrug concentrations, Cp (0), using the integrated Michaelis-Menten equation: Cd(t)+KM ln[1−Cd(t)/Cp(0)]=Vmaxt (1) Fitting was carried out using the Matlab nlinfit function (Mathworks).
AVFm and AVFp (each at 480 μM) were incubated with A.O. protease (2-8 U/mL) in assay buffer over various time intervals in assay buffer pH 7.4 at 32° C.
The Michaelis Menten parameters for AVFp reactions were determined by carrying out reactions for t=5 min in solutions containing A.O. protease.
The extent of reaction was determined after t=12 min with MDZ-pro incubated, at different concentrations, in assay buffer with 4 U/ml A.O. protease.

A.O. protease = assay: Conversion of prodrug by A.O. protease on apical side of MDCKII-wt monolayers, supersaturated drug; assay type: in vitro ADME, Aspergillus Oryzae; conditions: for precipitates of supersaturated drug formed from prodrug/enzyme: apical compartment after prodrug/A.O. protease administration
Experimental: The same was also shown for MDZ-pro. The experiments were carried out as follows.
Appropriate molar concentrations of MDZ-pro equivalent to supersaturated MDZ solution were incubated with the converting enzyme in assay buffer, pH 7.4 at 32° C. (nasal temperature). Supersaturation potential, S, was calculated as the ratio between the molar concentration of administered MDZ-pro and the molar concentration of saturated MDZ:
Rapidly mixed solutions of chirally pure MDZ-pro and A.O protease were administered onto the apical side of MDCKII-wt monolayers and MDZ-pro, and MDZ concentrations were analyzed on both the apical and basal sides as a function of time. An example of prodrug and drug kinetics in the apical compartment is shown in FIG. 5b (MDZ-pro 326 μM, A.O. protease 16 U/mL). Rapid conversion of prodrug (complete within 30 min) was followed by an extended residence of supersaturated drug in the apical chamber, with supersaturation reached in less than 5 min. […] Apical concentrations of MDZ were close to those predicted, based on a two compartment model with input due to enzymatic conversion of MDZ-pro to MDZ, with assumed rate constant kconv=Vmax/KM.

MDCKII-wt monolayer = assay: Membrane permeation across MDCKII-wt monolayers (Transwell)
Experimental: (§1) In vitro permeation studies were also performed on prodrug/enzyme mixtures prepared at various prodrug and enzyme concentrations. […] The experiments were carried out as follows. Maden Darby Canine Kidney-II wild type (MDCK-IIwt) cells were plated on thin membranes in a six well Transwell apparatus. Following confluence and washing, assay buffer (PBS, pH 7.4) was introduced into the basal side of the membrane. At time zero, solutions of various concentrations of prodrug were combined with 0.25 U/ml of A.O protease and introduced on the […] side of the membrane. Aliquots were then taken, with replacement, from both the basal and apical sides, and assayed for both drug and prodrug. The integrity of the membranes throughout the experiment was confirmed by transepithelial resistance (TEER) and inulin permeation measurements.
(§2) Following previously published procedures (Kapoor M, et al., AAPS J, 2014, 16, 3, 577-585; and Kapoor M, et al., Mol Pharm, 2013, 10, 9, 519-3524), Madin Darby canine kidney II wild type (MDCKII-wt: passages between 10 and 20) cells were cultured and grown as monolayers in 12-well Transwell plates ([…] pore size, polyester, Corning). Transepithelial electrical resistance (TEER) was measured to assure membrane integrity just prior to conversion/permeation experiments. TEER and a Lucifer yellow dye permeability assay were used to reassess monolayer integrity at the conclusion of each experiment.
(§3) In separate experiments, solutions containing 900 μM AVFp or AVFm were rapidly mixed with A.O. protease (4 U/mL) in assay buffer (pH 7.4 at 32° C.), and administered at time zero on the apical side of MDCKII-wt monolayers cultured in a 12-well Transwell plate (Kapoor M, et al., AAPS J, 2014, 16, 3, 577-585; and Kapoor M, et al., Mol Pharm, 2013, 10, 9, 519-3524).
(§4) To assess transport of MDZ through the MDCKII-wt monolayer membrane, MDZ, 55 μM (S=1) was introduced on the apical side of the monolayer in a 12-well Transwell, and accumulation of MDZ on the basal side was assayed as a function of time.

MDCKII-wt monolayers = assay: Monolayer intactness by TEER and Lucifer yellow permeability after 2 h exposure; conditions: A.O. protease 1-16 U/mL
Experimental: as §2

[2] = Membrane permeation across MDCKII-wt monolayers (Transwell); conditions: dog, MDCK
Experimental: as §1, §2, §3, §4

[3] = MDZ equilibrium solubility in assay buffer; assay type: physicochemical; conditions: aqueous buffer, thermodynamic from solid; assay buffer pH 7.4, 32° C.
Experimental: Equilibrium solubility of MDZ in assay buffer was determined at three temperatures: 25, 32 and 37° C. There was essentially no effect of temperature on drug thermodynamic solubility within this temperature range.

[4] = MDZ-pro to MDZ, 4 U/ml A.O. protease, t=12 min, estimates (s.e.m.)
[5] = MDZ-pro 326 μM, A.O. protease 16 U/mL, apical compartment
[6] = AVFp to DZP, 0.25 U/ml A.O. protease, t=5 min

Compound: CN(C(=O)CNC(=O)[C@@H](N)CCCCN)c1ccc(Cl)cc1C(=O)c1ccccc1 [AVFm]
- conversion of prodrug to DZP [1]: ~70%

Compound: CN1C(=O)CN=C(c2ccccc2)c2cc(Cl)ccc21 [DZP, diazepam]
- precipitates of supersaturated drug formed from prodrug/enzyme (A.O. protease): no evidence of formation of DZP precipitates

Compound: Cc1ncc(CNC(=O)[C@@H](N)CCCCN)n1-c1ccc(Cl)cc1C(=O)c1ccccc1F [MDZ-pro, Midazolam L-Lysine Prodrug]
- Km [1, 4]: 5.86 ± 0.83 mM
- Vmax [1, 4]: 0.233 ± 0.022 mM/min
- extent of conversion by A.O. protease [1]: complete conversion
- catalytic efficiency as Vmax/(U/mL of A.O. protease) [1]: 0.0582 mM/min/(U/ml)
- conversion via endogenous enzymes (MDCKII-wt monolayer; MDZ-pro alone (without enzyme), apical, 2 h, up to 2 mM): negligible conversion
- prodrug permeation through MDCKII-wt monolayers (MDCKII-wt monolayer; MDZ-pro alone (without enzyme), apical, 2 h, up to 2 mM initial prodrug concentration): negligible prodrug permeation
- % TEER values (MDCKII-wt monolayers): unaffected
- time to complete conversion of prodrug (A.O. protease; [5]): ≤ 30 min
- time to reach supersaturation (A.O. protease; [5]): less than 5 min

Compound: CN(C(=O)CNC(=O)[C@@H](N)CCCCN)c1ccc(Cl)cc1C(=O)c1ccccc1 [AVFp, Avizafone Hydrochloride]
- conversion of prodrug to DZP ([1]; Hydrochloride): 100%
- Km [1, 6]: 3.38 ± 0.34 mM
- Vmax [1, 6]: 0.518 ± 0.030 mM/min
- extent of conversion by A.O. protease [1]: complete conversion
- catalytic efficiency as Vmax/(U/mL of A.O. protease) [1]: 2.07 mM/min/(U/ml)
- rate and amount of DZP permeation compared with enantiomeric mixture AVFm (MDCKII-wt monolayer; 900 μM prodrug, A.O. protease 4 U/mL, apical, pH 7.4, 32° C., each time point): greater

Compound: CN(C(=O)CNC(=O)[C@@H](N)CCCCN)c1ccc(Cl)cc1C(=O)c1ccccc1 [AVF, Avizafone]
- permeation of prodrug across the membrane (MDCKII-wt monolayer; AVF/enzyme administered on the apical side): not to permeate the membrane significantly
- permeation of prodrug across the monolayer (MDCKII-wt monolayer; in the absence of enzyme, AVF pure or mix (data not shown)): negligible permeation

Compound: Cc1ncc2n1-c1ccc(Cl)cc1C(c1ccccc1F)=NC2 [MDZ, midazolam]
- Papp A→B at 55 μM [2]: 26.5 ×10⁻⁶ cm/s
- clearance CL of the membrane (MDCKII-wt monolayer; MDZ 55 μM (S=1) apical, 12-well Transwell, two compartment model fit): 0.11 ± 0.01 mL/h
- solubility thermodynamic [3]: 55 µM and 15.5 µg/mL
- % TEER values (MDCKII-wt monolayers): unaffected
- precipitates of supersaturated drug formed from prodrug/enzyme (A.O. protease): none were found
